# The source made the active and inactive calls.
# Legend:
# [1] = target: Cytochrome P450 2C9 (Homo sapiens, UniProt P11712)
# [2] = M. tuberculosis H37Rv growth inhibitors, H37Rv strain (AID 1626); format: functional
# [3] = target: Heat shock protein HSP 90-alpha (Homo sapiens, UniProt P07900); format: functional, organism-based
# [4] = tested on: Vero; experiment: host cell cytotoxicity of antiviral hits, dose response, cytotoxicity control for West Nile virus antiviral project, secondary assay (AID 1650); format: functional; conditions: Chlorocebus sabaeus
# [5] = cytotoxicity toward NIH3T3 fibroblasts, dose response, counter-screen, cell-based, ATP luminescence, mouse fibroblasts (AID 2010); format: functional;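 further: cells exposed to compound for about 90 hours before reading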
# [6] = target: G-protein coupled receptor 55 (Homo sapiens, UniProt Q9Y2T6); experiment: GPR55 agonists via beta-arrestin recruitment, primary screen, imaging, U2OS cells, beta-arrestin-GFP redistribution (AID 1961); format: functional
# [7] = inhibitors of intracellular T. cruzi replication, confirmation, NIH3T3 host cells, beta-gal luminescence (AID 2044); format: functional, cell-based;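 further: intracellular parasites grown in NIH/3T3 mouse fibroblasts as host cells; luminescent beta-galactosidase reporter signal from transgenic T. cruzi replicating inside host cells; inhibitors lower the luminescence signal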
# [8] = target: Induced myeloid leukemia cell differentiation protein Mcl-1 (Homo sapiens, UniProt Q07820); experiment: MCL1-BIM BH3 interaction inhibitors, dose response, biochemical, fluorescence polarization, BIM-BH3 peptide, 1536-well (AID 2217)
# [9] = target: T1, Small ubiquitin-related modifier 1 (Homo sapiens, UniProt P63165); experiment: inhibitors of SUMO1 peptide binding, dose response, biochemical, fluorescence polarization, uHTS hits (AID 624382); format: functional; conditions: read-out: IC50_Mean
# [10] = target: Albumin (Bos taurus, UniProt P02769); experiment: Counterscreen for inhibitors of T-cell receptor (TCR)-CD3 interaction: Fluorescence-based biochemical high throughput dose response assay to identify inhibitors of T-cell receptor (TCR)-CD3 interaction using a TAMRA-labeled BSA probe.; format: functional
# [11] = target: Bcl-2-like protein 1 (Homo sapiens, UniProt Q07817); experiment: BCL-XL inhibitors, dose response, selectivity assay for MCL1 inhibitor project, biochemical, fluorescence polarization, 1536-well (AID 2218)
# [12] = target: T1, Small ubiquitin-related modifier 1; experiment: inhibitors of SUMO1 partner interactions, dose response, biochemical, FRET (AID 624383); format: functional; conditions: read-out: IC50_Mean
# [13] = target: T2, Genome polyprotein (Hepatitis C virus, UniProt Q2Q167); experiment: Late stage assay provider counterscreen results for the probe development effort to identify inhibitors of Hepatitis C Virus (HCV) core protein dimerization: Luminescence-based biochemical AlphaScreen assay to identify inhibitors of HCV core dimerization.; format: functional, Hepacivirus hominis
# [14] = target: T2, Genome polyprotein; experiment: HCV core protein dimerization inhibitors, dose response, biochemical, TR-FRET (AID 2159); design: species or system Hepacivirus hominis;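 further: blocks dimerization of HCV core protein measured by TR-FRET between tagged core106 pairs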
# [15] = target: Large T antigen (Simian virus 40, UniProt P03070); format: functional, Betapolyomavirus macacae;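 further: Confirmatory-stage PubChem screen for compounds that inhibit SV40 T antigen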
# [16] = target: 14-3-3 protein gamma (Homo sapiens, UniProt P61981); experiment: modulators of 14-3-3 gamma client binding – dose response (AID 711); format: functional
# [17] = cytotoxicity in HPDE-C7 cells, cell-based, fluorescence, HTS (AID 430); format: functional; conditions: Homo sapiens
# [18] = target: T3, Zinc finger protein mex-5 (Caenorhabditis elegans, UniProt Q9XUB2); experiment: MEX-5/TCR-2 RNA interaction inhibitors, dose response, biochemical, C. elegans, fluorescence polarization (AID 1960)
# T3 sequence (Q9XUB2 whole entry): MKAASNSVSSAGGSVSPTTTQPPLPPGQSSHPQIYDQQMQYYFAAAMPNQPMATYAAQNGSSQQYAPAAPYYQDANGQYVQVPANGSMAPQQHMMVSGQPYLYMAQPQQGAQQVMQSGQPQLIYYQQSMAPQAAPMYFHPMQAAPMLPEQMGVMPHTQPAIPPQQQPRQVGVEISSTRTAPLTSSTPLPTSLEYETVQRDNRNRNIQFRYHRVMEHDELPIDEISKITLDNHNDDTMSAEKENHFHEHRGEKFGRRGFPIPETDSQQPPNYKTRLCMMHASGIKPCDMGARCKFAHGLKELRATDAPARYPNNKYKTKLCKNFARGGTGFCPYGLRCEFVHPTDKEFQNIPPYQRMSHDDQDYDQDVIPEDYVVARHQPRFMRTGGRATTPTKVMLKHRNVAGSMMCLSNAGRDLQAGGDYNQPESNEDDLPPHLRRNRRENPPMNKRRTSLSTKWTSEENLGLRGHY
# [19] = cytotoxicity in KRAS-transformed pancreatic duct cells, primary screen, cell-based, fluorescence, HTS (AID 431); format: functional; conditions: Homo sapiens;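 further: cell line used: HPDE-C7K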
# [20] = target: T4, Heat shock factor protein 1 (Mus musculus, UniProt P38532); experiment: HSF1 potentiators in luciferase reporter cells, confirmation, cell-based, NIH3T3, luminescence, dose retest (AID 435004); format: functional;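 further: stress induced by proteasome inhibitor MG132 added 30 min after compound; luciferase reporter driven by HSF1 response element in NIH3T3 cells; actives raise luminescence as potentiators of the MG132 stress response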
# T4 sequence (P38532 whole entry): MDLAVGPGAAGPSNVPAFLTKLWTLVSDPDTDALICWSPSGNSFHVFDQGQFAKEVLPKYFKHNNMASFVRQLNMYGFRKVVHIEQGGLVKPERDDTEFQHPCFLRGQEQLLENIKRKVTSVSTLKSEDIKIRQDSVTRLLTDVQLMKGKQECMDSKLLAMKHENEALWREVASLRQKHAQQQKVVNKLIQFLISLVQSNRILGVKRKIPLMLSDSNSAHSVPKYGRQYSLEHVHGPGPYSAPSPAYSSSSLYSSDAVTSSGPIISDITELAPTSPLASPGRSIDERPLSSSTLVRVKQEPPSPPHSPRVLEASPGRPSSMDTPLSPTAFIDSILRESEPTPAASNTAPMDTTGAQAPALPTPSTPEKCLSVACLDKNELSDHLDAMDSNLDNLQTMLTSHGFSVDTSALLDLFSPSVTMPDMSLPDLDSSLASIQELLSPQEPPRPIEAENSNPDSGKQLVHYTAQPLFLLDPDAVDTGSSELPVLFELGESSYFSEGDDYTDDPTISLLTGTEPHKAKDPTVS
# [21] = target: T5, RNA-binding protein pos-1 (Caenorhabditis elegans, UniProt G5EF15); experiment: inhibitors of POS-1/mex-3 RNA binding, dose response, biochemical, fluorescence polarization (AID 1964);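 further: purified POS-1 fused to maltose binding protein made in E. coli; potency of compounds blocking POS-1 binding to fluorescent RNA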
# T5 sequence (G5EF15 whole entry): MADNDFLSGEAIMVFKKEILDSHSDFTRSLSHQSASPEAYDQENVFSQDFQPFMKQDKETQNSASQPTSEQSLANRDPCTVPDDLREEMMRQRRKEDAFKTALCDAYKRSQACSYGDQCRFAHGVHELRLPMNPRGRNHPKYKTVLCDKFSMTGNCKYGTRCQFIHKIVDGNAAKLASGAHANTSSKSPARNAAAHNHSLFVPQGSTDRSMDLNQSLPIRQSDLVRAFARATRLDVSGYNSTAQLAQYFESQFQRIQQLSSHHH
# [22] = target: Glucose-6-phosphate 1-dehydrogenase (Homo sapiens, UniProt P11413); experiment: human G6PD enzyme inhibitors, dose response, selectivity assay for P. falciparum G6PD inhibitor project, biochemical, fluorescence (AID 504792); format: functional
# [23] = target: T6, Estrogen receptor (Homo sapiens, UniProt P03372);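 further: potency for inhibiting coactivator peptide recruitment to the receptor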
# T6 sequence (P03372 whole entry): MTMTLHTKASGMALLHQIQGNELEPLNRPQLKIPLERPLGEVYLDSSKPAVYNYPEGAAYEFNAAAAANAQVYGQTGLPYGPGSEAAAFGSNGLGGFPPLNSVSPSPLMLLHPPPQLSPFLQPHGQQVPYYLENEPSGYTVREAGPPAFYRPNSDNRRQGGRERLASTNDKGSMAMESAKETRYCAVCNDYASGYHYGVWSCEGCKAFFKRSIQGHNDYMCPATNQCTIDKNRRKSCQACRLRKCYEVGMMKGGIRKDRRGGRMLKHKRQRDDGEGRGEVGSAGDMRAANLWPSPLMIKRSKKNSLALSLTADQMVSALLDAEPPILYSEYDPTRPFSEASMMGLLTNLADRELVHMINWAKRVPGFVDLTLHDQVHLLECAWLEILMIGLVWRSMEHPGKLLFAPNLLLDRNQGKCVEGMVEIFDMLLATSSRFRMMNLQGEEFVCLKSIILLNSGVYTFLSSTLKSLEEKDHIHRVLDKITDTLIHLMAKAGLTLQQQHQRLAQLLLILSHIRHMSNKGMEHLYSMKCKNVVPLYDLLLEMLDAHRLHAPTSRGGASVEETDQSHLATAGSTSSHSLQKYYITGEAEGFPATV
# [24] = target: Aspartyl aminopeptidase (Plasmodium falciparum 3D7, UniProt Q8I2J3); experiment: Counterscreen for inhibitors of M1 and M17 aminopeptidases: QFRET-based biochemical high throughput dose response assay for inhibitors of the Plasmodium falciparum M18 Aspartyl Aminopeptidase (PFM18AAP). [Related PubChem assays: 1619 (Screening assay (M17LAP inhibitors).), 1445 (Screening assay (M1AAP inhibitors).)]
# [25] = target: Procathepsin L (Homo sapiens, UniProt P07711); experiment: cathepsin L inhibitors, dose response, counter-screen for M1/M17 aminopeptidase inhibitor project, biochemical, QFRET, 1536-well (AID 2214)
# [26] = target: T7, Leucine aminopeptidase (Plasmodium falciparum 3D7, UniProt Q8IL11); experiment: P. falciparum M17LAP inhibitors, primary screen, biochemical, fluorogenic H-Leu-NHMec substrate, 1536-well (AID 1619); format: functional
# T7 sequence (Q8IL11 whole entry): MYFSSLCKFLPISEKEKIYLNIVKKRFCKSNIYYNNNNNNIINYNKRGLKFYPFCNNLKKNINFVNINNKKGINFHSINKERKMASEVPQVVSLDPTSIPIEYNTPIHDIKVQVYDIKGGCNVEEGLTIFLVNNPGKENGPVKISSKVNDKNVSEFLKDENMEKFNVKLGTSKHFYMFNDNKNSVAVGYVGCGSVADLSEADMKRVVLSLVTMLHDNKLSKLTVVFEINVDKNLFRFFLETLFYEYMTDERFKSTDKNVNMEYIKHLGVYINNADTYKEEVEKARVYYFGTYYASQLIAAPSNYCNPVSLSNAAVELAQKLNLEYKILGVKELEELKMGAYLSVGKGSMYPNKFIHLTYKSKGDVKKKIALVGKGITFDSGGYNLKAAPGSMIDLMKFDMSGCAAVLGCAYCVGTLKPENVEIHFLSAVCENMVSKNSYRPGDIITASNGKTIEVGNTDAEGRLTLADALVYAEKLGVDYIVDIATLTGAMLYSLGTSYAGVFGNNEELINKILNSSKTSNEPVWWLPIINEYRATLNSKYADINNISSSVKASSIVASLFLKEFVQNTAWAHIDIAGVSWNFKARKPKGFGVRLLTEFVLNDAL
# [27] = target: Transitional endoplasmic reticulum ATPase (Homo sapiens, UniProt P55072); experiment: Luminescence dose response biochemical high throughput screening assay for inhibitors of the p97 ATPase: synthesized compounds. [Related pubchem assays: 1481, 1517 ]
# [28] = target: Transitional endoplasmic reticulum ATPase (Homo sapiens, UniProt P55072, C522A); experiment: Luminescence counterscreen assay for p97 inhibitors: dose response biochemical high throughput screening assay to identify inhibitors of the C522A mutant p97 ATPase: synthesized compounds. [Related pubchem assays: 1481, 1517, 1551 ]
# [29] = cytotoxicity toward DRD oncogenic fibroblasts, dose response, cell-based, non-viral oncogenic, luminescence (AID 1934); format: functional; conditions: Homo sapiens
# [30] = tested on: BJ; experiment: cytotoxicity toward BJ-TERT-LT-ST fibroblasts, dose response, cell-based, RAS-independent, luminescence (AID 1935); format: functional; conditions: Homo sapiens;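 further: BJ fibroblasts immortalized with TERT plus LT and ST oncogenes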
# [31] = cytotoxicity in HEK-293T cells, dose response, cytotoxicity control for TCR NF-kB inhibitor project, luminescence, T-cell screen hits (AID 489026); format: functional, cell-based;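 further: cells exposed to compound about 14 hours before the viability readout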
# [32] = tested on: BJ; experiment: cells; format: functional, cell-based; conditions: Homo sapiens
# [33] = tested on: BJ; experiment: cytotoxicity toward BJ-TERT fibroblasts, dose response, cell-based, RAS-independent, luminescence (AID 1933); format: functional; conditions: Homo sapiens
# [34] = Luminescence-based dose response cell-based high throughput screening assay for cytotoxic compounds using the IEC-6 intestinal epithelial cell line. [Related pubchem assays: 1858 (Summary AID.), 1825 (Counterscreen.), 1907 (Confirmation screen.)]; format: functional
# T2 sequence (Q2Q167 whole entry): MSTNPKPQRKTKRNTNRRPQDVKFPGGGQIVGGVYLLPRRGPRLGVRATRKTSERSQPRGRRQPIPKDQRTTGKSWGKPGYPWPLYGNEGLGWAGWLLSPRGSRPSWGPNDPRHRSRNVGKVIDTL
# T1 sequence (P63165 whole entry): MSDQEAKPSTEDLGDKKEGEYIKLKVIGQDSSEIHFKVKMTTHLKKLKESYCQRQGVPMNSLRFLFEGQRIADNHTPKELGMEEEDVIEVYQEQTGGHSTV
# Large T antigen, sequence (P03070 whole entry): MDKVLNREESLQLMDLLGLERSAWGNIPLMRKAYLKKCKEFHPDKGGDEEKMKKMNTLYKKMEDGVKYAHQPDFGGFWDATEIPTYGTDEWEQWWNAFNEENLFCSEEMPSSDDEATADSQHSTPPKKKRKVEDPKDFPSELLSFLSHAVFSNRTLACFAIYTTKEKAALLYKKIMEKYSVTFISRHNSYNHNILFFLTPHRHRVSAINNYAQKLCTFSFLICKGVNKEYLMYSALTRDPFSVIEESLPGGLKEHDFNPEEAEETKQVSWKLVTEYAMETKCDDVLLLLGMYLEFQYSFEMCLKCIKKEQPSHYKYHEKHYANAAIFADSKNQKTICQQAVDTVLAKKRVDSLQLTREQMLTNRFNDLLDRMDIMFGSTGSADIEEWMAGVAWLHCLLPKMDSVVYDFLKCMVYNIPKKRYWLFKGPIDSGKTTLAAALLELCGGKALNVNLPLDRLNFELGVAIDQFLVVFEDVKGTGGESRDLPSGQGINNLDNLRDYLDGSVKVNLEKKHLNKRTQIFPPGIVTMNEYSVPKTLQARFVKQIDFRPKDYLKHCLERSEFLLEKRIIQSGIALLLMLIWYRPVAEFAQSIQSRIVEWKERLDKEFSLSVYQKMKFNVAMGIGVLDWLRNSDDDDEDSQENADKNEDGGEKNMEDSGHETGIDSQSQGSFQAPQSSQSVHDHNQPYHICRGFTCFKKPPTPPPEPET
# 14-3-3 protein gamma, sequence (P61981 whole entry): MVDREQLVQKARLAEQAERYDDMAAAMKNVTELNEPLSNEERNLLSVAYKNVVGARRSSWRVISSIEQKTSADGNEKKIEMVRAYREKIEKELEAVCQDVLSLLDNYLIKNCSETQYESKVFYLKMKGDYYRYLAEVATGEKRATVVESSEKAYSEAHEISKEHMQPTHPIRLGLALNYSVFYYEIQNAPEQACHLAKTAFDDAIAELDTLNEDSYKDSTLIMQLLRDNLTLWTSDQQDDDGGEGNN
# Procathepsin L, sequence (P07711 whole entry): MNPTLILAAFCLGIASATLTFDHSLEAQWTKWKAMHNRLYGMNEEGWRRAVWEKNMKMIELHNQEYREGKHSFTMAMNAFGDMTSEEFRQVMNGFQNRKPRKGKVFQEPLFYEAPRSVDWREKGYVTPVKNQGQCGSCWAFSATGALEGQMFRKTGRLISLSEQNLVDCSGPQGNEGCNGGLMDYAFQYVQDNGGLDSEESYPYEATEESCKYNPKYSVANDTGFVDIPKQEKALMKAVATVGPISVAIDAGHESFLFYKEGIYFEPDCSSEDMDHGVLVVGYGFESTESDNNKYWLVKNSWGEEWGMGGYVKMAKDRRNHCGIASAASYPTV
# G-protein coupled receptor 55, sequence (Q9Y2T6 whole entry): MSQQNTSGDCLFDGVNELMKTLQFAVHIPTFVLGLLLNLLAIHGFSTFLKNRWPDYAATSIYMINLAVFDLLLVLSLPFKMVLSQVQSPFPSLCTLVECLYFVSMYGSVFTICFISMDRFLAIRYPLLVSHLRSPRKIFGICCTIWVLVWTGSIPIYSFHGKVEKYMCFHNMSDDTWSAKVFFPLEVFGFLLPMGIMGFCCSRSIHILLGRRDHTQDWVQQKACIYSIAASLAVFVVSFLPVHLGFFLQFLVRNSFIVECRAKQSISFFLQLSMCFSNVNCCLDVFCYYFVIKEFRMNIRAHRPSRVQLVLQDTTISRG
# Cytochrome P450 2C9, sequence (P11712 whole entry): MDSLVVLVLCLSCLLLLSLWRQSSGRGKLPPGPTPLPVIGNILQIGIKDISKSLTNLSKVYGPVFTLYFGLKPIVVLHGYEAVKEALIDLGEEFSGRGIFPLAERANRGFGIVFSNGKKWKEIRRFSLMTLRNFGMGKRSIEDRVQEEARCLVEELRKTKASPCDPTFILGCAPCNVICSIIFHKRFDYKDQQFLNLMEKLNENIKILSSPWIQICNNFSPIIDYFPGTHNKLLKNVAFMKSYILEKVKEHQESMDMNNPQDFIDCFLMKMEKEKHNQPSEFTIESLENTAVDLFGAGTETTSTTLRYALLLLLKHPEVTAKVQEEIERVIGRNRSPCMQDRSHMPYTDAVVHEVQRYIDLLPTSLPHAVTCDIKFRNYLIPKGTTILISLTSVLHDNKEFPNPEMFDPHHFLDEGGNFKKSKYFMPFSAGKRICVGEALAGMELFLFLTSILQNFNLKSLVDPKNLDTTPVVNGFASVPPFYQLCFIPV
# Bcl-2-like protein 1, sequence (Q07817 whole entry): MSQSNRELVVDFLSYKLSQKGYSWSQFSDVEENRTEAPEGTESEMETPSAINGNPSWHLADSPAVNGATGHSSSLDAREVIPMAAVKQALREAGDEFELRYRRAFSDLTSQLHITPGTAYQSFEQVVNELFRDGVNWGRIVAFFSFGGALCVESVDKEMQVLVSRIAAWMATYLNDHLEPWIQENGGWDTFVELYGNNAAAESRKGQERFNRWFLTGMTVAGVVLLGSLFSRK
# Transitional endoplasmic reticulum ATPase (Homo sapiens, UniProt P55072), sequence (P55072 whole entry): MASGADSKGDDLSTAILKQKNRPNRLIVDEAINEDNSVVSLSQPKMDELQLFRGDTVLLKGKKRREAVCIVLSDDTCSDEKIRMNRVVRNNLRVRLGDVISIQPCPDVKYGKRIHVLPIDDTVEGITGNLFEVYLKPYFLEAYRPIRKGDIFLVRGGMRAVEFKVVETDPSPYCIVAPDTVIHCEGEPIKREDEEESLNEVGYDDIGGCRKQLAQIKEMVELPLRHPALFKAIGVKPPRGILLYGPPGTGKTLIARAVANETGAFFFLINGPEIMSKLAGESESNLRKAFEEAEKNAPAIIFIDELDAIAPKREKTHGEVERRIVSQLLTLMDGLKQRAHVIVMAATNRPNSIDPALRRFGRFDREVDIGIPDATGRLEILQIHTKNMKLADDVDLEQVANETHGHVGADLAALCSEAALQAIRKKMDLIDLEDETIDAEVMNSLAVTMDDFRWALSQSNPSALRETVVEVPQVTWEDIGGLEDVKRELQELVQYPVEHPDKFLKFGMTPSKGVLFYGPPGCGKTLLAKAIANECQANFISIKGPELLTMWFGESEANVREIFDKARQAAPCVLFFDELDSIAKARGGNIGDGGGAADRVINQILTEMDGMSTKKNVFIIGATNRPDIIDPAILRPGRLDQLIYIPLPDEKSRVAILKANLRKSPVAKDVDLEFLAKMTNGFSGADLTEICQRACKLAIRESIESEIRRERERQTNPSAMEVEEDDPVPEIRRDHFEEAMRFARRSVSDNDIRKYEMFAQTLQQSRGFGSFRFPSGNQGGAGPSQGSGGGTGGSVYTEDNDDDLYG
# Albumin, sequence (P02769 whole entry): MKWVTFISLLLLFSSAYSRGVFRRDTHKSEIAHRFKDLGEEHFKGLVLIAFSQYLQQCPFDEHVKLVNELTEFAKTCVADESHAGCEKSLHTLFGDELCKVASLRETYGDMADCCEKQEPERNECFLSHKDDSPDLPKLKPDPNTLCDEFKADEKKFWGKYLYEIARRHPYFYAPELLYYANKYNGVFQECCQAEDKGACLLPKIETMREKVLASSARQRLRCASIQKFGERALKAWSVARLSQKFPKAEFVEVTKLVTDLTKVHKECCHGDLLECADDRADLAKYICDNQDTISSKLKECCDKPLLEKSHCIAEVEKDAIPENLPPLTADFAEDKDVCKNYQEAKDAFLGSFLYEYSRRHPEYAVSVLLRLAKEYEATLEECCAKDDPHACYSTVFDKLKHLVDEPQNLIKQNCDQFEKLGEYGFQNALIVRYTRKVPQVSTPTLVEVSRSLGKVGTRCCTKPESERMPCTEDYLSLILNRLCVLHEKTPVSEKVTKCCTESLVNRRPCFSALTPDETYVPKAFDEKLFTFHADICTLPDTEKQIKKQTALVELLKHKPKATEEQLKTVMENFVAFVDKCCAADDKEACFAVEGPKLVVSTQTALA
# Induced myeloid leukemia cell differentiation protein Mcl-1, sequence (Q07820 whole entry): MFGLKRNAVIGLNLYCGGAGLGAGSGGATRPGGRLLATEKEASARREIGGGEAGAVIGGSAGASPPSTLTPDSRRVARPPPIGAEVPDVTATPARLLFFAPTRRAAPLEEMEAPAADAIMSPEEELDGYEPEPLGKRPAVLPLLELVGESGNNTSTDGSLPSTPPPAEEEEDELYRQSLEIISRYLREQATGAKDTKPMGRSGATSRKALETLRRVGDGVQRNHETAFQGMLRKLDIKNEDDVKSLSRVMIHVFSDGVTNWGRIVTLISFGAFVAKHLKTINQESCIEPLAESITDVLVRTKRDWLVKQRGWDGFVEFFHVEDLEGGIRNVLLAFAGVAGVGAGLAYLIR
# Glucose-6-phosphate 1-dehydrogenase, sequence (P11413 whole entry): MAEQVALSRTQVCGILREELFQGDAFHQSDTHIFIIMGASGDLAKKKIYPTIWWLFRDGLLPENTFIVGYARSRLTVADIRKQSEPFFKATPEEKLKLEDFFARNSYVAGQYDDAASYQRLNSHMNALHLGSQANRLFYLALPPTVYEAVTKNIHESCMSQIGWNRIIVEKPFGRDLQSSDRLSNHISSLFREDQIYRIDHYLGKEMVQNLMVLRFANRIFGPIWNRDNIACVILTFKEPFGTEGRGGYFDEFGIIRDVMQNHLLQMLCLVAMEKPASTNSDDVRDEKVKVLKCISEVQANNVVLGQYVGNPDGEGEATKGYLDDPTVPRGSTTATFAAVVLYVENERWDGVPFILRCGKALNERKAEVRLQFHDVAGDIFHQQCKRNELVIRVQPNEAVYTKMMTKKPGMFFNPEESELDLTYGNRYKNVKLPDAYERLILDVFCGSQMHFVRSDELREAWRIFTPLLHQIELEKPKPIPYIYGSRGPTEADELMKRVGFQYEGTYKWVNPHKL
smiles,measurement,setting,value
CCCCOC(=O)Nc1ccc(C)c(Cl)c1,AC50,[1],11.2 µM (inconclusive)
same,IC50,[2],> 100 µM (active)
CC(=O)Nc1ccc(Nc2cc(C(C)C)nc3c(-c4ccccc4)c(C)nn23)cc1,AC50,[3],3.84 µM (active)
same,CC50,[4],> 100 µM (active)
same,EC50,[5],10.4 µM (active)
same,EC50,[6],> 32 µM (inactive)
same,EC50,[7],0.211 µM (active)
CCN(CC(=O)Nc1c(F)cccc1F)C(=O)/C=C/c1ccc2ccccc2n1,IC50,[8],3.46 µM (active)
same,IC50,[9],> 66.6 µM (inactive)
same,IC50,[10],> 94.1 µM (inactive)
same,IC50,[11],25.3 µM (not active)
same,IC50,[12],2.3 µM (active)
same,IC50,[13],29.8 µM (inactive)
same,IC50,[14],16.7 µM (not active)
CC(Cc1ccc(O)c(O)c1)C(C)Cc1ccc(O)c(O)c1 (stereo not given) [NORDIHYDROGUAIARETIC ACID],IC50,[15],21.9 µM (active)
same,IC50,[16],> 50 µM (not active)
same,EC50,[17],9.48 µM (active)
same,EC50,[18],8.75 µM (active)
same,EC50,[19],11.2 µM (active)
same,EC50,[20],2.32 µM (active)
same,EC50,[21],26.1 µM (active)
same,IC50,[22],> 80 µM (inactive)
same,IC50,[23],22.2 µM (active)
CCN(CC)c1ccc(NC(=O)CSc2nnc(N)s2)cc1C,IC50,[15],14.8 µM (active)
same,IC50,[24],> 73.5 µM (not active)
same,IC50,[25],> 59.6 µM (not active)
same,IC50,[26],5.57 µM (active)
Cc1cc(-c2csc(Nc3ccc(C#N)cc3)n2)c(C)n1C,IC50,[27],> 50 µM (not active)
same,IC50,[28],> 50 µM (not active)
COc1cc2c(c(OC)c1OC)-c1ccc(OC)c(=O)cc1[C@@H](N(C)CC#CCO)CC2,EC50,[29],1.45 µM (inconclusive)
same,EC50,[30],0.616 µM (inconclusive)
same,IC50,[31],> 80 µM (inactive)
same,EC50,[32],16.7 µM (inconclusive)
same,EC50,[33],9.89 µM (active)
same,IC50,[34],0.226 µM (active)

# Reference: ChEMBL document CHEMBL1201862, “PubChem BioAssay data set” (2004)
